Laboratory results: patent US20250000783A1, “METHOD FOR HAIR CARE BY USING CASHEW TESTA EXTRACT” (TCI CO., LTD., priority 2023, published 2025)

Key:
HFDPC cells = assay: Test for promoting hair follicle cell proliferation (EdU, flow cytometry); assay type: cell-based, human; settings: 0.1 mM compound, 24 h; for relative hair follicle cell proliferation rate: blank group G01 = 100%
Method: 1. Assay kit: cell proliferation assay kit (Click-iT™ Plus EdU Flow Cytometry Assay Kits-Alexa Fluor™ 488 picolyl azide, 50 tests), which is purchased from Invitrogen, with a product number C10632.
1. HFDPC cells were inoculated into a 6-well culture medium at the density of 1×10^5 cells/well, and cultured under the conditions of 5% CO2 and 37° C. until 80%-90% of cell fullness were achieved.
2. After culture for 24 h, the content of DNA in each group was measured by using cell proliferation assay kit. Therefore, cells in each group were treated according to test procedures provided by the cell proliferation assay kit, then the excitation light parameter of flow cytometer was set as 450-490 nm, and the scattered light parameter of flow cytometer was set as 510-550 nm, and then EdU (5-ethynyl-2′-deoxyuridine) fluorescent signal of each group was detected by flow cytometer.
The proliferation rate of hair follicle cells in each group was based on the content of DNA in each group. The relative hair follicle cell proliferation rates of all groups are calculated according to the following formula: relative hair follicle cell proliferation rate (%)-(fluorescent signal of each group/fluorescent signal of blank group G01)×100%.
The statistically significant difference between test results of blank group G01 and other groups was obtained by student's t-test statistical analysis. In the figures, “*” represents that compared with blank group G01, p is less than 0.05, “**” represents that compared with blank group G01, p is less than 0.01, and “***” represents that compared with blank group G01, p is less than 0.001.

[1] = tested on: human hair follicle dermal papilla cells (HFDPC); assay: Antioxidant test for hair follicle cells (ROS, DCFH-DA, flow cytometry, H2O2 stimulation); assay type: cell-based; settings: 0.1 mM compound + 0.5 mM H2O2, read-out: ROS inhibition rate relative to control group G02
Method: 1. Cell strains: human hair follicle dermal papilla cells (HFDPC), which are purchased from PromoCell, with a cell number C-12071, and hereinafter referred to as HFDPC cells.
1. HFDPC cells were inoculated into a 6-well culture medium with 2 ml of cell culture medium in each well at the density of 1×10^5 cells, and cultured at 37° C. for 24 h. Therefore, the HFDPC cells were divided into three test groups which were blank group G01, control group G02 and experimental group, respectively.
2. After culture for 24 h, each group was changed as an experimental culture medium. Where, the experimental culture media in blank G01 and control group G02 were cell culture mediums without cashew testa extracts or compounds thereof. Subsequently, each group was treated at 34° C. for 1 h.
3. After treatment for 1 h, a DCFH-DA treatment reagent was added in each group so that the final concentration of each group was 5 μg/mL, and each group was treated at 37° C. for 15 min.
4. After treatment for 15 min, 100 mM of 5 μl/well H2O2 aqueous solution was added, and each group was treated at 34° C. for 0.5 h.
5. The treated experimental culture medium in each group was removed, and washed 2 times with 1× DPBS.
6. After washing, 500 μl of trypsin was added into each well for 5 min of photophobic reaction. After the reaction, the cell culture medium was added to terminate the reaction. After that, suspended cells and cell culture media in each well were collected into corresponding 1.5 ml micro-centrifuge tubes, and centrifuged for 5 min at 400×g to make cells in each centrifuge tube participated.
7. Supernatant in a centrifuge test tube for each group was removed, and the precipitate cells were washed with 1× DPBS once, and then centrifuged for 5 min at 400×g.
The supernatant in a centrifuge test tube for each group was removed again, and 200 μl of 1× DPBS was added into the centrifuge test tube for each group to resuspend the cells so as to form a cell suspension.
8. The excitation light parameter of flow cytometry was set as 450-490 nm, the scattered light parameter of flow cytometry was set as 510-550, and then the fluorescence signal of DCFH-DA in each group was detected by flow cytometry. After entering the HFDPC cells, DCFH-DA was […] into DCFH (dichlorodihydrofluorescein) and then oxidized into DCF (dichlorofluorescein) capable of emitting green fluorescence by reactive oxygen species (ROS), the fluorescence intensity of the HFDPC cells treated by DCFH-DA can reflect the content of ROS in […], so as to obtain the proportion of highly expressed ROS cells in FDPC cells accounting for the number of original cells.
The relative ROS generation amounts of all groups are calculated according to the following formula: ROS relative generation amount (%)=(green fluorescence signal in each group/green fluorescence signal in blank group G01)×100%.
Since the experiment was repeated for three times, the measurement results of experiment that was repeated for three times were averaged as an average value, and then statistically significant differences between rest results of control group G02 and other groups were obtained by student's t-test statistical analysis. In the figures, “*” represents that compared with control group G02, p is less than 0.05, “**” represents that compared with control group G02, p is less than 0.01, and “***” represents that compared with control group G02, p is less than 0.001.
Refer to FIG. 10. The cells in blank group G01 were neither treated with the cashew testa extract, nor stimulated by adding H2O2, and therefore the test results in blank group G01 represent the expression of cells under the condition of normal physiological metabolism, and the relative ROS generation amount of each group is as shown in FIG. 10. […]

SMILES	increase of relative hair follicle cell proliferation rate relative to blank group G01 (HFDPC cells)	proliferation effect compared with control group G02 (20% fetal bovine serum) (HFDPC cells)	relative hair follicle cell proliferation rate (HFDPC cells) [%]	inhibition at 100 µM [1] [%]
O=C(/C=C/c1ccc(O)cc1)OC[C@H]1O[C@@H](Oc2cc(O)c3c(c2)OC(c2ccc(O)cc2)CC3=O)[C@H](O)[C@@H](O)[C@@H]1O (stereo partly drawn) [Naringenin 7-O-(6″-O-p-coumaryl)-β-D-glucoside]	~25%	superior to that of control group G02	125	75.8
O=C(/C=C/c1ccc(O)cc1)O[C@@H]1Cc2c(O)cc(O)cc2O[C@@H]1c1ccc(O)c(O)c1 [epicatechin coumarin ester, Epicatechin coumarin ester]	about 14.1%	–	114.1	100
O=C(O[C@@H]1Cc2c(O)cc(O)cc2O[C@@H]1c1ccc(O)c(O)c1)c1cc(O)c(O)c(O)c1 [epicatechin gallate, Epicatechin gallate]	–	–	89.9	96.9
O=C(O)c1cc(O)c(O)c(O)c1 [gallic acid, Gallic acid]	–	–	83.7	80
Oc1cc(O)c2c(c1)O[C@H](c1cc(O)c(O)c(O)c1)[C@@H](O)C2 [gallocatechin, Gallocatechin]	–	–	93.5	90.8
Oc1cc(O)cc(O)c1 [phloroglucinol, Phloroglucinol]	~27.9%	superior to that of control group G02	127.9	53.9
O=C(O)c1ccc(O)c(O)c1 [protocatechuic acid, Protocatechuic acid]	~9.6%	–	109.6	99.4
